From ChEMBL document CHEMBL1201862, “PubChem BioAssay data set” (2004)
The source made the active and inactive calls.

Tests used:
[1] = target: T1, Lysosomal acid glucosylceramidase (Homo sapiens, UniProt P04062); test: Dose response cell-based high throughput screening assay to identify enhancers of beta-glucosidase activity. [Related pubchem assays: 784 ]; format: functional
T1 sequence (P04062 whole entry): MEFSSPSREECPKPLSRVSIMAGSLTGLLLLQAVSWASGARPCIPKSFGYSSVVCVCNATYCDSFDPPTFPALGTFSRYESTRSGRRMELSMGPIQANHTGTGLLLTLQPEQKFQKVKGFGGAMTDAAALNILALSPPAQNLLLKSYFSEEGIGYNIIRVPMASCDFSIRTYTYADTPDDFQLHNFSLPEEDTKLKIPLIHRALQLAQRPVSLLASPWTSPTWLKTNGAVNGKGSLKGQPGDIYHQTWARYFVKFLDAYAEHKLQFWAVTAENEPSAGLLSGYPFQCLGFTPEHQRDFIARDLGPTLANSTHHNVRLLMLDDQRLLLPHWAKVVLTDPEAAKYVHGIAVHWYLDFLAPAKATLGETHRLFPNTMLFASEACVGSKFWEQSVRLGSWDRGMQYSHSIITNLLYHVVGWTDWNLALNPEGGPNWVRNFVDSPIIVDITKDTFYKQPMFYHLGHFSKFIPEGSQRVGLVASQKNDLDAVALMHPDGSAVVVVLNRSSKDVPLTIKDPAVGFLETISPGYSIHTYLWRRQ

[2] = target: T2, Coagulation factor XII (Homo sapiens, UniProt P00748); format: functional;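 also: activated factor XIIa alpha cleaving a fluorogenic AMC peptide substrate; inhibitor potency from loss of enzyme activity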
T2 sequence (P00748 whole entry): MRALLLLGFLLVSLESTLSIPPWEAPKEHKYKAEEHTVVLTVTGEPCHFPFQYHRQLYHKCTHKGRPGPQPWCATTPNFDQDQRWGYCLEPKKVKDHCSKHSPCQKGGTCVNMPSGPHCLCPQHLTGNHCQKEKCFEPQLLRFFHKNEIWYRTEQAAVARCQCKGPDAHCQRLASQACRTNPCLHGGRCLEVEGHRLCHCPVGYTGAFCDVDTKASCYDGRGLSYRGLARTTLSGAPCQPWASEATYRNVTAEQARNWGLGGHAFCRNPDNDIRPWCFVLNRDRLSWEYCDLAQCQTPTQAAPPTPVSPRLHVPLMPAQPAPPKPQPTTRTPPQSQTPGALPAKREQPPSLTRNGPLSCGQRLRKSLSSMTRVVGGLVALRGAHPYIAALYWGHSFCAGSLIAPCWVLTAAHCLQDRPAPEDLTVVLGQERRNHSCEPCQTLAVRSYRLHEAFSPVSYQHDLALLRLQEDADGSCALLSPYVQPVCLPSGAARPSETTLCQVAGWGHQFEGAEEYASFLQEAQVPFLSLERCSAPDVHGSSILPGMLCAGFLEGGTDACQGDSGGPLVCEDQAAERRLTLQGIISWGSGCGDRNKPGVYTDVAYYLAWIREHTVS

[3] = target: Peroxisome proliferator-activated receptor gamma/Nuclear receptor coactivator 1 (Homo sapiens, UniProt P37231); test: (§1) TR-FRET dose response biochemical High Throughput Screening assay for agonists of the steroid receptor coactivator 1 (SRC-1) recruitment by the peroxisome proliferator-activated receptor gamma (PPAR gamma): non-selective agonists. [Related pubchem assays (depositor defined):AID1300, AID1808, AID504735, AID631]; format: protein assay
[4] = target: Peroxisome proliferator-activated receptor gamma/Nuclear receptor coactivator 3 (Homo sapiens, UniProt P37231); test: as §1, with “3 (SRC-3)” for “1 (SRC-1)”, “assays: 1301 (Confirmation screen.), 1048 (Primary screen.)]” for “assays (depositor defined):AID1300, AID1808, AID504735, AID631]”; format: functional
[5] = target: Peroxisome proliferator-activated receptor gamma/Nuclear receptor coactivator 2 (Homo sapiens, UniProt P37231); test: TR-FRET dose response biochemical High Throughput Screening assay for agonists of the steroid receptor coactivator 2 (SRC-2) recruitment by the peroxisome proliferator-activated receptor gamma (PPAR gamma): non-selective agonists. [Related pubchem assays: 1297, 1032 ]; format: functional
[6] = test system: HEK293; test: NOD1 signaling inhibitors, primary screen, cell-based, luminescence, uHTS (AID 1578); format: functional; details: Homo sapiens
[7] = test system: HEK293; test: cells; format: functional, cell-based; details: Homo sapiens
[8] = test system: HEK293; test: cells; format: functional, cell-based; details: Homo sapiens; remark: listed apart in the source
[9] = test system: HEK293; test: NOD2 signaling inhibitors in MDP-stimulated cells, cell-based, uHTS, luminescence (AID 2001); format: functional; details: Homo sapiens
[10] = Luminescence Cell-Based Dose Retest to Confirm Inhibitors of Cancer Stem Cells. [Related pubchem assays (depositor defined):AID2717, AID2721]; format: functional; details: Homo sapiens
[11] = cytotoxicity in HMLE control line with eGFP shRNA, dose response, counter-screen for HMLE_sh_ECad selective toxicity project, cell-based, HMLE_sh_eGFP, luminescence (AID 463074); format: functional, Homo sapiens;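 also: HMLE human mammary epithelial cells expressing control shRNA against eGFP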
[12] = target: Large T antigen (Simian virus 40, UniProt P03070); format: functional, Betapolyomavirus macacae;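 also: Confirmatory-stage PubChem screen for compounds that inhibit SV40 T antigen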
[13] = target: Dual specificity tyrosine-phosphorylation-regulated kinase 1A (Rattus norvegicus, UniProt Q63470); format: biochemical, Homo sapiens
[14] = target: 26S proteasome non-ATPase regulatory subunit 14 (Homo sapiens, UniProt O00487); test: inhibition of proteasome subunit RPN11 – biochemical, fluorescence polarization, uHTS hits, confirmation (AID 602368); format: functional
[15] = target: 72 kDa type IV collagenase (Homo sapiens, UniProt P08253); test: Dose Response validation of uHTS RPN11 inhibitor hits using a MMP-2 Fluorescence assay.; format: functional
[16] = target: Prothrombin (Bos taurus, UniProt P00735); test: thrombin inhibition, dose response, biochemical, fluorescence polarization, uHTS hits (AID 602369); format: functional
[17] = test system: BJ; test: cytotoxicity toward BJ-TERT fibroblasts, dose response, cell-based, RAS-independent, luminescence (AID 1933); format: functional; details: Homo sapiens
[18] = target: T3, Luciferin 4-monooxygenase (Photinus pyralis, UniProt P08659); test: Counter Screen for Luciferase-based Assay Positives. [Related pubchem assays: 620, 618, 411 ]
[19] = test system: BJ; test: cells; format: functional, cell-based; details: Homo sapiens
[20] = target: T3, Luciferin 4-monooxygenase; test: firefly luciferase enzyme inhibitors, dose response, biochemical, luminescence (AID 1891)
[21] = Luminescence Cell-Based Dose Confirmation HTS to Identify Inhibitors of Platelet Dense Granule Release. [Related pubchem assays: 1663 (Primary HTS), 1678 (Summary of Project)]; format: functional
[22] = test system: HT-1080; test: cytotoxicity in HT1080 fibrosarcoma cells, cell-based, fluorescence readout (AID 620); format: functional; details: Homo sapiens
[23] = test system: BJ; test: cytotoxicity toward BJ-TERT-LT-ST fibroblasts, dose response, cell-based, RAS-independent, luminescence (AID 1935); format: functional; details: Homo sapiens;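 also: BJ fibroblasts immortalized with TERT plus LT and ST oncogenes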
[24] = cytotoxicity toward DRD oncogenic fibroblasts, dose response, cell-based, non-viral oncogenic, luminescence (AID 1934); format: functional; details: Homo sapiens
[25] = target: Heat shock protein HSP 90-alpha (Homo sapiens, UniProt P07900); format: functional, organism-based
[26] = test system: BJ; test: cytotoxicity toward Ras-transformed BJeLR fibroblasts, dose response, cell-based, alamar blue fluorescence, cherrypicked samples (AID 2631); format: functional; details: Homo sapiens;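 also: confirmatory dose-response assay in RAS-dependent BJ fibroblasts engineered with TERT, LT and ST, with cytotoxicity read by fluorescence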
[27] = target: T4, Carboxy-terminal domain RNA polymerase II polypeptide A small phosphatase 1 (Homo sapiens, UniProt Q9GZU7); test: inhibitors of CTDSP1, concentration-response testing, biochemical assay, absorbance-based, actives from ultra-high-throughput screening (AID 540297); format: functional
T4 sequence (Q9GZU7 whole entry): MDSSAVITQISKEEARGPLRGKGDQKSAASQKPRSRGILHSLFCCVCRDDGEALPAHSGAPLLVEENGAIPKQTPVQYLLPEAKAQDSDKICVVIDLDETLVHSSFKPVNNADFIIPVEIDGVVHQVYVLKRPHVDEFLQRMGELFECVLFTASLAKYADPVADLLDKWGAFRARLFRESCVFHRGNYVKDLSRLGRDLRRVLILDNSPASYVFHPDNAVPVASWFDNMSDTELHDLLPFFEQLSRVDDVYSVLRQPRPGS

[28] = target: T5, Low molecular weight phosphotyrosine protein phosphatase (Homo sapiens, UniProt P24666); format: functional; details: read-out: IC50_Mean;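 also: Dose-response confirmation assay measuring inhibition of LMPTP enzyme activity by fluorescence intensity read-out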
T5 sequence (P24666 whole entry): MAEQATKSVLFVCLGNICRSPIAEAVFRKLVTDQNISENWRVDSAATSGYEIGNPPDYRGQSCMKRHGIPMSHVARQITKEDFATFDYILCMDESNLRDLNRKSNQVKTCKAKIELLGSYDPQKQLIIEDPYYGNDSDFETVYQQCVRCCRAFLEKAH

[29] = test system: INS1; test: beta cell apoptosis inhibitors, cytokine rescue, dose response, luminescence, retest (AID 449756); format: functional, cell-based; details: Rattus norvegicus;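 also: cell death triggered by IL-1 beta plus TNF-alpha plus IFN-gamma mixture; protective hits raise ATP signal compared with cytokine alone wells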

Sequence of Peroxisome proliferator-activated receptor gamma/Nuclear receptor coactivator 1 (P37231 whole entry): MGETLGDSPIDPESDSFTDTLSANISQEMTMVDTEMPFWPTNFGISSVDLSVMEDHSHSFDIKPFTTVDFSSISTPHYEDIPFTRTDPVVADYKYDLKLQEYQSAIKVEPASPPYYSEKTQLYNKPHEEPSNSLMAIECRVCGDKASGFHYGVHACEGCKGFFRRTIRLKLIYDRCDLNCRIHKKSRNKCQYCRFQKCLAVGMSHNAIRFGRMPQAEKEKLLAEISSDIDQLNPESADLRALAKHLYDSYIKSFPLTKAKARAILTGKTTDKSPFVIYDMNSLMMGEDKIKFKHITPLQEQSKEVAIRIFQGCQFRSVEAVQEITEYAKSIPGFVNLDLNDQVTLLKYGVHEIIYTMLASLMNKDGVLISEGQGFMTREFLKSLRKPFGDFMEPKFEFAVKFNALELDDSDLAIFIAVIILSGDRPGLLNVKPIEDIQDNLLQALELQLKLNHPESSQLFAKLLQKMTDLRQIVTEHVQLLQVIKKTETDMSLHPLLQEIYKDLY
Sequence of Peroxisome proliferator-activated receptor gamma/Nuclear receptor coactivator 1 (Q15788 whole entry, further chain): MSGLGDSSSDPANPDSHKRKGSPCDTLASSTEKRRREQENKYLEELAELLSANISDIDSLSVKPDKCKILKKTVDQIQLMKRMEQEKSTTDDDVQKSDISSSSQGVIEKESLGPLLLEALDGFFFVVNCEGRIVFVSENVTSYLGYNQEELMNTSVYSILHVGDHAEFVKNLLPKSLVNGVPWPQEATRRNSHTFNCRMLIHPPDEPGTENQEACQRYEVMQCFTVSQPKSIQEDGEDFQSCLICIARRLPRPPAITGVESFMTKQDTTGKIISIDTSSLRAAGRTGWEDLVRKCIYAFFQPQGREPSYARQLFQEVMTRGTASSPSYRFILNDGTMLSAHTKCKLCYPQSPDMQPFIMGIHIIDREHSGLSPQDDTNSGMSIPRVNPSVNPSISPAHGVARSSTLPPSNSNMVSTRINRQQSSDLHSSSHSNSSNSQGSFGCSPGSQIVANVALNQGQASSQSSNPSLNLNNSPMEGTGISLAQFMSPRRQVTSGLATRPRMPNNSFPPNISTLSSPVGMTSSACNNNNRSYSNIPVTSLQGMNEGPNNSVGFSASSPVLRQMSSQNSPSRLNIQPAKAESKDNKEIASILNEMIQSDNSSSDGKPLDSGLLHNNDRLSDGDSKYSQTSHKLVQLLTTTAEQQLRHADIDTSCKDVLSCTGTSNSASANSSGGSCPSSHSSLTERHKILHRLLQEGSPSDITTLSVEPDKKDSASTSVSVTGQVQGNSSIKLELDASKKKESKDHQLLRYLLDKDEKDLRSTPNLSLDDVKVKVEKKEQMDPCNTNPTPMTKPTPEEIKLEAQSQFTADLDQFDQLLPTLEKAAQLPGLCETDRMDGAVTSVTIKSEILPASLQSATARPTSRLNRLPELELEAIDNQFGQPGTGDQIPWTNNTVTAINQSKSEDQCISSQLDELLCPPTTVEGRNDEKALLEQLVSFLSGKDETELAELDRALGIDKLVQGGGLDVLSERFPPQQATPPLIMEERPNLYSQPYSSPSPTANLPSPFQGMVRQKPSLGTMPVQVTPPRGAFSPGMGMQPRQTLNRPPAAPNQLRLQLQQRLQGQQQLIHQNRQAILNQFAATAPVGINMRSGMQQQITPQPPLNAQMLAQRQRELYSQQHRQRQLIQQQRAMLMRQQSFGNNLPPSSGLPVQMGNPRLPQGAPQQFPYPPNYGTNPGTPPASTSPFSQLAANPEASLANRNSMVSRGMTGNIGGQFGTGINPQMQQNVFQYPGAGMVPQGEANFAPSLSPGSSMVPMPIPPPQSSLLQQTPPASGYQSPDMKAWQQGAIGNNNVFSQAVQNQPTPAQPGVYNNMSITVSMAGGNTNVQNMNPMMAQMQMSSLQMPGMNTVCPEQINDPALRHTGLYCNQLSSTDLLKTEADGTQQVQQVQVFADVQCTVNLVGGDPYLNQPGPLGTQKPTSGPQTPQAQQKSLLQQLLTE
Sequence of Peroxisome proliferator-activated receptor gamma/Nuclear receptor coactivator 3 (P37231 whole entry): as the sequence (P37231 whole entry) above
Sequence of Peroxisome proliferator-activated receptor gamma/Nuclear receptor coactivator 3 (Q9Y6Q9 whole entry, further chain): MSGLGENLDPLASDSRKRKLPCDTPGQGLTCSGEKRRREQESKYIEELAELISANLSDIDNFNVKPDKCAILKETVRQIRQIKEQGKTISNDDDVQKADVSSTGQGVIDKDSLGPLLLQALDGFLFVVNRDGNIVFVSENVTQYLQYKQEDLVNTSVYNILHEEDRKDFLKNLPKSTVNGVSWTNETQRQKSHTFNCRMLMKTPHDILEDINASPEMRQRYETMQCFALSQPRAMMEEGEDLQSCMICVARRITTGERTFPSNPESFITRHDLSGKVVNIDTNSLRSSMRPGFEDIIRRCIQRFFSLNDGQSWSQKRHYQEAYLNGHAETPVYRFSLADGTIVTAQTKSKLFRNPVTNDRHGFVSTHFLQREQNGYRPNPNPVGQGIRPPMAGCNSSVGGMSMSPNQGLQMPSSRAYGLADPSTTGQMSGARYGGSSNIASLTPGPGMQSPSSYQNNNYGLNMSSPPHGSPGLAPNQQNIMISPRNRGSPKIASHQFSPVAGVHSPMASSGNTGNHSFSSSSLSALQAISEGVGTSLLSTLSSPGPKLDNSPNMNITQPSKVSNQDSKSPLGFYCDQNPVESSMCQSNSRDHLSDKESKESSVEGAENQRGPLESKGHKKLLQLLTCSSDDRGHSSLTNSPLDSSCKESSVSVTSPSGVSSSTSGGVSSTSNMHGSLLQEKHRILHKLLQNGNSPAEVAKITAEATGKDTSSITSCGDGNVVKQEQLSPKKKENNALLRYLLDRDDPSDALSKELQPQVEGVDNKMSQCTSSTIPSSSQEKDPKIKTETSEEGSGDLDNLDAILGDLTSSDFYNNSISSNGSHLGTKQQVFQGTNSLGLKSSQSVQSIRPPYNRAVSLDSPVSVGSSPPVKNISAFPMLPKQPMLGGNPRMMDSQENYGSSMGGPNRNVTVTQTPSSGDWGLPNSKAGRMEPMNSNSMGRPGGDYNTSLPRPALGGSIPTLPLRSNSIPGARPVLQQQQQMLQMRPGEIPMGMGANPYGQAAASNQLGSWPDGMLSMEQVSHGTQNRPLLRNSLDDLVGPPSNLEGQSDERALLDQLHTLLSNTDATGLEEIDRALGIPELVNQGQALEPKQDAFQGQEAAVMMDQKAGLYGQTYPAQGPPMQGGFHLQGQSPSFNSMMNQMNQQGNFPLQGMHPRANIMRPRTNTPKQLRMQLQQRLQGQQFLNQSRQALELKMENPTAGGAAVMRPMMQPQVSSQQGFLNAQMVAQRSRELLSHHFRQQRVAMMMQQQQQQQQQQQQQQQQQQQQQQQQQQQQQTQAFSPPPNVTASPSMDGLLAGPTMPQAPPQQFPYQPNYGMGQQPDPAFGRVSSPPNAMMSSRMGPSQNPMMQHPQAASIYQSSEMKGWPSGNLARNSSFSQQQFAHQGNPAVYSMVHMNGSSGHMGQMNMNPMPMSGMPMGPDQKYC
Sequence of 26S proteasome non-ATPase regulatory subunit 14 (O00487 whole entry): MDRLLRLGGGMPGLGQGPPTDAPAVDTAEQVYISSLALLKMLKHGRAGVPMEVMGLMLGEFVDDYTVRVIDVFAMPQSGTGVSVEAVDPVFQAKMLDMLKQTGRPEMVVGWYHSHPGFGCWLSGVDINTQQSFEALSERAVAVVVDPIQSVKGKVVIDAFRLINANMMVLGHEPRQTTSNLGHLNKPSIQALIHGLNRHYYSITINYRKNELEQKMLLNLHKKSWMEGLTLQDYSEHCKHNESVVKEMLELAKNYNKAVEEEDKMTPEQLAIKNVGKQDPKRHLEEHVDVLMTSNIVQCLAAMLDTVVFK
Sequence of 72 kDa type IV collagenase (P08253 whole entry): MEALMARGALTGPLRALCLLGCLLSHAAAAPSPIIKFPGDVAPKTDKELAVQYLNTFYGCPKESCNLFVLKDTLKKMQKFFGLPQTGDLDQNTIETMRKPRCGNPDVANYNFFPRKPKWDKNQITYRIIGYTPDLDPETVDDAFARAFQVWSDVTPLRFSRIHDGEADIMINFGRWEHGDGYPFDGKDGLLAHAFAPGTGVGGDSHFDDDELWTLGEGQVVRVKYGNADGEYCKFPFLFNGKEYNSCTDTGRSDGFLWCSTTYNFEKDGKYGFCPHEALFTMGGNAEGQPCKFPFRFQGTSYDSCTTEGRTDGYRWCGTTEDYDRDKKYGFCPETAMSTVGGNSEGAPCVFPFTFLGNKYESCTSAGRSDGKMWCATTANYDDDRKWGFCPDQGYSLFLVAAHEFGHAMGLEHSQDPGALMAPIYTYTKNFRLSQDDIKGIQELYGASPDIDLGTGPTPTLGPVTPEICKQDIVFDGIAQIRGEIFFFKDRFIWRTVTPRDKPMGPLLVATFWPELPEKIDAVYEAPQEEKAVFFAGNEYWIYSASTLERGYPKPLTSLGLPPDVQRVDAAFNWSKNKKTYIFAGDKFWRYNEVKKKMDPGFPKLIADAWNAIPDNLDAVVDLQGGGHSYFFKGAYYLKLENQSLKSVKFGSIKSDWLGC

Question: For CCn1c(SCC(=O)N2CCN(c3ccccc3)CC2)nnc1-c1cc2cc(Cl)ccc2o1, which EC50 [1] is on record?
Answer: > 50 µM (not active)

Question: What about the IC50 [2] of the same compound?
Answer: > 50 µM (inactive)

Question: With CCOC(=O)C1CCCN(CC(=O)Nc2c(C(=O)OC)[nH]c3ccc(Br)cc23)C1 (stereo unspecified) as the compound, how does the EC50 [3] read?
Answer: > 79.4 µM (inactive)

Question: What about the EC50 [4] of the same compound?
Answer: > 79.4 µM (not active)

Question: And the EC50 [5]?
Answer: > 26.5 µM (not active)

Question: Which IC50 [2] does the source give for COc1ccc(N(CC(=O)Nc2ccccc2SC)S(C)(=O)=O)cc1OC here?
Answer: > 50 µM (inactive)

Question: With CN(c1ccccc1)S(=O)(=O)c1cc(C(=O)Nc2nc3ccccc3[nH]2)ccc1Cl as the compound, how does the EC50 [6] read?
Answer: 8.46 µM (active)

Question: And the IC50 [7]?
Answer: 5.37 µM (active)

Question: And the IC50 [8]?
Answer: > 20 µM (inactive)

Question: What about the IC50 [9] of the same compound?
Answer: 6.72 µM (active)

Question: With COc1ccc(-c2cc(C(=O)c3c(N)n(C)c(=O)n(C)c3=O)c3ccccc3n2)cc1OC as the compound, how does the IC50 [2] read?
Answer: > 50 µM (inactive)

Question: What does the source list for O=C(Nc1nc2c(s1)CN(Cc1ccccc1)CC2)c1cccc(S(=O)(=O)N2CCc3ccccc32)c1?
Answer: EC50 [3]: 10.8 µM (inactive); EC50 [4]: 28 µM (not active); EC50 [5]: 14.8 µM (not active)

Question: What does the source list for CC(Sc1nnc(-c2ccc(Cl)cc2Cl)n1Cc1ccccc1)C(=O)Nc1nccs1 (stereo unspecified)?
Answer: EC50 [3]: 10.6 µM (inactive); EC50 [4]: 17.6 µM (not active); EC50 [5]: > 79.4 µM (not active)

Question: Which IC50 [2] does the source give for COCc1c(C(=O)OCc2nc(N)nc(Nc3ccccc3C)n2)oc2ccccc12 here?
Answer: > 50 µM (inactive)

Question: What does the source list for CC1=C(C(=O)Nc2ccccc2)C(c2ccco2)C(C#N)=C(SCc2ccccc2)N1 (stereo unspecified)?
Answer: AC50 [10]: 17.5 µM (active); AC50 [11]: 28.4 µM (active)

Question: What does the source list for O=C(NNc1nc(-c2ccc(Cl)cc2)cs1)c1ccco1?
Answer: AC50 [10]: 1.8 µM (active); AC50 [11]: 87.8 µM (active)

Question: With Oc1ccc2c(c1)oc1cc(O)ccc12 as the compound, how does the IC50 [12] read?
Answer: 3.5 µM (active)

Question: What about the AC50 [13] of the same compound?
Answer: 754 nM (active)

Question: What does the source list for COc1ccc(-n2c(/C=C/c3ccc(O)c(O)c3)nc3ccccc3c2=O)cc1?
Answer: IC50 [12]: 55.9 µM (active); IC50 [14]: 9.05 µM (active); IC50 [15]: > 100 µM (inactive); IC50 [16]: 6.49 µM (active)

Question: For CCOc1ccc2nc(NC(=O)c3ccoc3C)sc2c1, which EC50 [17] is on record?
Answer: 2.43 µM (active)

Question: And the EC50 [18]?
Answer: 6.49 µM (active)

Question: What about the EC50 [19] of the same compound?
Answer: 1.79 µM (active)

Question: What about the EC50 [20] of the same compound?
Answer: < 88 nM (active)

Question: What about the EC50 [21] of the same compound?
Answer: 231 nM (active)

Question: What about the EC50 [22] of the same compound?
Answer: > 50 µM (not active)

Question: And the EC50 [23]?
Answer: 6.32 µM (active)

Question: And the EC50 [24]?
Answer: 1.97 µM (active)

Question: And the AC50 [25]?
Answer: 2.02 µM (active)

Question: And the EC50 [26]?
Answer: > 133 µM (inactive)

Question: Which EC50 [3] does the source give for c1ccc(-c2nnsc2-c2nc3ccccc3[nH]2)cc1 here?
Answer: 10.8 µM (inactive)

Question: And the EC50 [4]?
Answer: 83.6 µM (not active)

Question: What about the EC50 [5] of the same compound?
Answer: 10.3 µM (not active)

Question: For O=c1c2cc(-c3ccccc3)sc2nc2n1N=C(c1cccs1)CS2, which IC50 [27] is on record?
Answer: 6.3 µM (active)

Question: What about the IC50 [28] of the same compound?
Answer: 13.7 µM (active)

Question: Which IC50 [14] does the source give for Cc1cc(C)c(S(=O)(=O)N2C[C@H]3CON(C)[C@H]3C[C@H]2c2ccc(N3CCCCC3)cc2)c(C)c1 here?
Answer: 23.2 µM (active)

Question: What about the IC50 [15] of the same compound?
Answer: > 100 µM (inactive)

Question: What about the IC50 [16] of the same compound?
Answer: 29.2 µM (active)

Question: Which IC50 [28] does the source give for COc1ccc(CNc2nc(-c3ccccc3)nc3ccccc23)cc1OC here?
Answer: 9.94 µM (active)

Question: With O=C(NCCCn1ccnc1)c1ccc(N2CCCCCC2)c([N+](=O)[O-])c1 as the compound, how does the EC50 [17] read?
Answer: > 150 µM (not active)

Question: What about the EC50 [19] of the same compound?
Answer: 7.97 µM (active)

Question: And the EC50 [23]?
Answer: 11.4 µM (active)

Question: And the EC50 [24]?
Answer: 25.6 µM (active)

Question: What about the EC50 [26] of the same compound?
Answer: 3.55 µM (active)

Question: And the AC50 [29]?
Answer: 6.67 µM (active)

Question: Which IC50 [14] does the source give for Cc1cc(C)cc(NC(=O)Cn2nnc(C(=O)NCc3ccc4c(c3)OCO4)c2N)c1 here?
Answer: 22.9 µM (active)

Question: What about the IC50 [15] of the same compound?
Answer: > 100 µM (inactive)

Question: What about the IC50 [16] of the same compound?
Answer: 72.2 µM (active)
